According to patent US8426447B2, “Spiro-tricyclic ring compounds as beta-secretase modulators and methods of use” (Amgen Inc., priority 2008, dated 2013):

What was measured:
BACE1 [1] = target: T1, BACE1 (Homo sapiens, UniProt P56817); assay: In Vitro Enzymatic BACE FRET (Fluorescence Resonance Energy Transfer) Assay; assay type: biochemical
In short: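 Buffer 0.05 M acetate pH 4.2 with 10% DMSO final and 100 uM genapol; reaction started with 50 nM FRET peptide substrate (fluorophore/quencher flanking BACE cleavage site), incubated one hour. Stopped with Tris buffer raising pH to neutrality, then fluorescence read.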

BACE1 [2] = target: T1, BACE1; assay: In Vitro BACE Cell-based Assay (HEK cell assay): Aβ40 in conditioned medium of cells stably expressing Amyloid Precursor Protein, sandwich ELISA
In short: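 APP-expressing cells were cultured 24 h in DMEM/10% FBS, then treated 24 h with compounds in 10-point dose response (top 100 μM or 10 μM; 0.1% DMSO final). Secreted Aβ40 was quantified by sandwich ELISA (pAb40 capture, biotinylated 6E10 detection, Europium TRF); IC50 from percent inhibition versus concentration.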

[3] = Table IV, class symbols, read-out: BACE1 FRET assay
[4] = Table IV, class symbols, read-out: HEK cell assay
[5] = HEK cells, read-out: HEK cell assay
[6] = Table III, IC50's in uM ranges, read-out: BACE1 FRET assay
[7] = Table III, IC50's in uM ranges, read-out: HEK cell assay
[8] = in vitro BACE FRET enzyme assay, IC50 class symbols, read-out: BACE1 FRET assay
[9] = HEK cell-based assay, Aβ40 in conditioned medium, IC50 class symbols, read-out: HEK cell assay

T1 sequence (P56817 46-501, species assumed): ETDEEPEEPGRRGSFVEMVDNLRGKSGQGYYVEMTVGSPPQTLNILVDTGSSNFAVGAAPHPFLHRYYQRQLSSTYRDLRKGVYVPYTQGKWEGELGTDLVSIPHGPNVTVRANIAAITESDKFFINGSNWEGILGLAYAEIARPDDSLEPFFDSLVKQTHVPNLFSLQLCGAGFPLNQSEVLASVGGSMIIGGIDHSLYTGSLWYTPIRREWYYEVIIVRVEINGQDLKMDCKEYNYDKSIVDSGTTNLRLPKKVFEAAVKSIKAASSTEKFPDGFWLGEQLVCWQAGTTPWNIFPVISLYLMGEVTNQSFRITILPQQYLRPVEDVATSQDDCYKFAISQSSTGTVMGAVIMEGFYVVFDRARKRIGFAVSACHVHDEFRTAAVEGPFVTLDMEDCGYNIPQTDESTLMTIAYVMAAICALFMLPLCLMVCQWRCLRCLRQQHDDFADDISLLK

CC(=O)COc1ccc2c(c1)[C@]1(COC(N)=N1)c1cc(-c3cccnc3)ccc1O2 [compound 923]
IC50 (BACE1 [1]; [3]): < 0.1 µM | IC50 (BACE1 [2]; [4]): < 0.1 µM

COC(C)(C)C#Cc1cnc2c(c1)[C@@]1(COC(N)=N1)c1cc(-c3ccnnc3)ccc1O2 [compound 681]
IC50 (BACE1 [1]; read-out: BACE1 FRET assay): 1 to 5 µM | IC50 (BACE1 [2]; read-out: HEK cell assay): > 5 µM

NC1=N[C@]2(CO1)c1cc(Br)ccc1Oc1ccc(Cl)nc12 [compound 856]
IC50 (BACE1 [1]; [3]): > 5 µM | IC50 (BACE1 [2]; [4]): > 5 µM

CCCOc1cc2c(cc1F)Oc1ccc(-c3cccnc3)cc1[C@]21COC(N)=N1 [compound 939]
IC50 (BACE1 [1]; read-out: BACE1 FRET assay): 0.1 to 1 µM | IC50 (BACE1 [2]; read-out: HEK cell assay): 0.1 to 1 µM

NC1=N[C@@]2(CO1)c1cc(-c3cc(Cl)ccc3F)ccc1Oc1ncc(N3CCOCC3)cc12 [compound 457]
IC50 (BACE1 [1]; read-out: BACE1 FRET assay): < 0.1 µM | IC50 (BACE1 [2]; [5]): < 0.1 µM

CCCOc1ccc2c(c1)[C@@]1(COC(N)=N1)c1cc(-c3cncnc3)ccc1O2 [Example 11, (4R)-2′-propoxy-7′-(5-pyrimidinyl)spiro[1,3-oxazole-4,9′-xanthen]-2-amine]
IC50 (BACE1 [1]; Table 1, read-out: BACE1 FRET assay): 0.1 to 1 µM | IC50 (BACE1 [2]; Table 1, Aβ40, 24 h incubation, read-out: HEK cell assay): 1 to 5 µM

NC1=N[C@@]2(CO1)c1cc(-c3cc(C4=CCOCC4)ccc3F)ccc1Oc1cnc(C3=CCOCC3)cc12 [compound 423]
IC50 (BACE1 [1]; read-out: BACE1 FRET assay): < 0.1 µM | IC50 (BACE1 [2]; [5]): 0.1 to 1 µM

COC(C)(C)C#Cc1ccc2c(c1)[C@@]1(COC(N)=N1)c1cc(-c3cccnc3)cnc1O2 [208a]
IC50 (BACE1 [1]; [6]): 0.1 to 1 µM | IC50 (BACE1 [2]; [7]): 0.1 to 1 µM

COc1ccc(-c2ccc3c(c2)[C@]2(COC(N)=N2)c2cc(-c4cncnc4)ccc2O3)cc1 [compound 892]
IC50 (BACE1 [1]; [3]): < 0.1 µM | IC50 (BACE1 [2]; [4]): < 0.1 µM

CC(C)(C)CCc1ccc2c(c1)[C@@]1(COC(N)=N1)c1cc(-c3ccc(F)nc3)ccc1O2 [153a]
IC50 (BACE1 [1]; [6]): < 0.1 µM | IC50 (BACE1 [2]; [7]): 0.1 to 1 µM

COc1cncc(-c2ccc3c(c2)[C@@]2(COC(N)=N2)c2cc(OCC(C)(C)C)cnc2O3)c1 [compound 383]
IC50 (BACE1 [1]; [8]): < 0.1 µM | IC50 (BACE1 [2]; [9]): < 0.1 µM

NC1=N[C@@]2(CO1)c1cc(-c3cccnc3F)ccc1Oc1c(F)cc(N3C[C@@H]4C[C@H]3CO4)cc12 [compound 416]
IC50 (BACE1 [1]; [8]): < 0.1 µM | IC50 (BACE1 [2]; [9]): < 0.1 µM

CC(C)(C)COc1ccc2c(c1)[C@]1(COC(N)=N1)c1cc(C3=CC4CCC3C4)ccc1O2 (stereo partly drawn) [compound 730]
IC50 (BACE1 [1]; read-out: BACE1 FRET assay): < 0.1 µM | IC50 (BACE1 [2]; read-out: HEK cell assay): 1 to 5 µM

CC(C)(C)COc1ccc2c(c1)[C@]1(COC(N)=N1)c1cc(-c3cnccn3)ccc1O2 [Example 131, (S)-2′-(neopentyloxy)-7′-(pyrazin-2-yl)-5H-spiro[oxazole-4,9′-xanthen]-2-amine]
IC50 (BACE1 [1]; [6]): < 0.1 µM | IC50 (BACE1 [2]; [7]): < 0.1 µM

NC1=N[C@@]2(CO1)c1cc(-c3cccnc3F)ccc1Oc1ccc(-c3ccnc(F)c3)nc12 [compound 399]
IC50 (BACE1 [1]; [8]): < 0.1 µM | IC50 (BACE1 [2]; [9]): 0.1 to 1 µM

NC1=N[C@]2(CO1)c1cc(C#CC3CCCCC3)ccc1Oc1ccc(-c3cncnc3)cc12 [compound 138]
IC50 (BACE1 [1]; [6]): < 0.1 µM | IC50 (BACE1 [2]; [7]): 0.1 to 1 µM

CC(C)(F)COc1cnc2c(c1)[C@]1(COC(N)=N1)c1cc(-c3cccnc3)ccc1O2 [compound 450]
IC50 (BACE1 [1]; read-out: BACE1 FRET assay): < 0.1 µM | IC50 (BACE1 [2]; [5]): < 0.1 µM

CC(C)(C)C#Cc1ccc2c(n1)[C@]1(COC(N)=N1)c1cc(-c3cccnc3)ccc1O2 [compound 854]
IC50 (BACE1 [1]; [3]): < 0.1 µM | IC50 (BACE1 [2]; [4]): < 0.1 µM

Cc1noc(C)c1-c1ccc2c(c1)[C@]1(COC(N)=N1)c1cc(OCC(C)(C)C)ccc1O2 [compound 189]
IC50 (BACE1 [1]; [6]): 0.1 to 1 µM | IC50 (BACE1 [2]; [7]): > 5 µM

CC1(C)CN(c2cc3c(cn2)Oc2ccc(-c4cccnc4F)cc2[C@@]32COC(N)=N2)CCO1 [compound 489]
IC50 (BACE1 [1]; BACE1 FRET assay (uM)): < 0.1 µM | IC50 (BACE1 [2]; HEK cell assay (uM), HEK cells): < 0.1 µM

NC1=N[C@]2(CO1)c1ccccc1Oc1ccc(C(=O)NC3CCCCC3)cc12 [compound 621]
IC50 (BACE1 [1]; [3]): > 5 µM | IC50 (BACE1 [2]; [4]): > 5 µM

NC1=N[C@@]2(CO1)c1ccccc1Oc1ccc(-c3cccnc3)cc12 [compound 640]
IC50 (BACE1 [1]; [3]): 1 to 5 µM | IC50 (BACE1 [2]; [4]): 1 to 5 µM

NC1=N[C@]2(CO1)c1cc(C#CCCO)ccc1Oc1ccc(-c3cccnc3)cc12 [compound 183]
IC50 (BACE1 [1]; [6]): < 0.1 µM | IC50 (BACE1 [2]; [7]): < 0.1 µM

CON(C)C(=O)COc1ccc2c(c1)[C@]1(COC(N)=N1)c1cc(-c3cccnc3)ccc1O2 [compound 788]
IC50 (BACE1 [1]; read-out: BACE1 FRET assay): 1 to 5 µM | IC50 (BACE1 [2]; read-out: HEK cell assay): 1 to 5 µM

CC1(C)C=C(c2cc(F)c3c(c2)[C@]2(COC(N)=N2)c2cc(-c4cncnc4)ccc2O3)CCO1 [compound 466]
IC50 (BACE1 [1]; read-out: BACE1 FRET assay): < 0.1 µM | IC50 (BACE1 [2]; [5]): < 0.1 µM

N#Cc1cccc(-c2ccc3c(c2)[C@]2(COC(N)=N2)c2cccnc2O3)c1 [compound 610]
IC50 (BACE1 [1]; [3]): 0.1 to 1 µM | IC50 (BACE1 [2]; [4]): 1 to 5 µM

Cc1cc(-c2ccc3c(c2)[C@]2(COC(N)=N2)c2cc(-c4cccnc4)ccc2O3)cc(=O)o1 [compound 390]
IC50 (BACE1 [1]; [8]): < 0.1 µM | IC50 (BACE1 [2]; [9]): < 0.1 µM
